Structures are written as SMILES.

Here are results for 14 molecules from patent US20250250230A1, “HETEROCYCLIC COMPOUND” (TAKEDA PHARMACEUTICAL COMPANY LIMITED, priority 2022, published 2025).

The target of the assay is T1, human orexin type 2 receptor (Homo sapiens, UniProt O43614).
T1 construct: expressed in transfected cells
T1 sequence (O43614 1-444): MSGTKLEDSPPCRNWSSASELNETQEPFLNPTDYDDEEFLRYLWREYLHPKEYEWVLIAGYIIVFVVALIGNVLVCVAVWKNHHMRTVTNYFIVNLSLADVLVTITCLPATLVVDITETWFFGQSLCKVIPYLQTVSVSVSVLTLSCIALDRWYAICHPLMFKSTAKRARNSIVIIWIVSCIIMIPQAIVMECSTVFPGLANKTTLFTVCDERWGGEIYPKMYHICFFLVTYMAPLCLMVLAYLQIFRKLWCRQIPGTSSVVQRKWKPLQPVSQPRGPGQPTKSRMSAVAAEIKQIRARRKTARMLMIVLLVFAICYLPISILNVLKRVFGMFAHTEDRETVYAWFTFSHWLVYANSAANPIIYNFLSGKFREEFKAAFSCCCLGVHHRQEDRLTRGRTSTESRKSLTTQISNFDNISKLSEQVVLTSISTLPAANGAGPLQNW
The assay is described as follows: Measurement of orexin type 2 receptor agonist activity (calcium fluorescence, Fluo-4 AM, FDSS). The format is cell-based. The conditions noted are these: test compound 3 μM; CHO cells expressing human OX2 receptor; DMSO = 0%, orexin A (human) = 100%. A digest of the protocol:
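Agonist response scaled between vehicle (0%) and human orexin A at 10 nM final (100%), from 2-min kinetic Fluo-4 fluorescence reads. Stable hOX2R CHO-K1 clone, dye-loaded in HBSS/20 mM HEPES/0.1% BSA with 1.25 mM probenecid before compound addition.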

As to `CCS(=O)(=O)NC(C)[C@@H]1[C@H](F)CN1C(=O)[C@@H]1C[C@@]1(F)c1ccccc1-c1c(F)cccc1F` (stereo partly drawn) [Example 416, N-[(1R)-1-{(2R,3R)-1-[(1S,2S)-2-(2′,6′-difluoro[1,1′-biphenyl]-2-yl)-2-fluorocyclopropane-1-carbonyl]-3-fluoroazetidin-2-yl}ethyl]ethanesulfonamide, or N-[(1S)-1-{(2R,3R)-1-[(1S,2S)-2-(2′,6′-difluoro[1,1′-biphenyl]-2-yl)-2-fluorocyclopropane-1-carbonyl]-3-fluoroazetidin-2-yl}ethyl]ethanesulfonamide], the “OX2R agonist activity (3 μM, %)” value is on record as 97%. Consider `CS(=O)(=O)N[C@H]1CCN(C(=O)[C@@H]2C[C@H]2c2ccccc2-c2c(F)cccc2F)C1` [Example 23, N-{(3S)-1-[(1R,2R)-2-(2′,6′-difluoro[1,1′-biphenyl]-2-yl)cyclopropane-1-carbonyl]pyrrolidin-3-yl}methanesulfonamide], for which the “OX2R agonist activity (3 μM, %)” value is listed as 105%.

Turning to `CS(=O)(=O)NC1CCN(C(=O)C2CC2c2ccc(F)cc2-c2c(F)cccc2F)C1` (racemic) [Example 135, a mixture of rac-N-{(3R)-1-[(1R,2R)-2-(2′,5,6′-trifluoro[1,1′-biphenyl]-2-yl)cyclopropane-1-carbonyl]pyrrolidin-3-yl}methanesulfonamide and rac-N-{(3S)-1-[(1R,2R)-2-(2′,5,6′-trifluoro[1,1′-biphenyl]-2-yl)cyclopropane-1-carbonyl]pyrrolidin-3-yl}methanesulfonamide], the “OX2R agonist activity (3 μM, %)” value came out at 111%. For the molecule `CS(=O)(=O)NC[C@H]1[C@H](CO)CN1C(=O)[C@@H]1C[C@@]1(F)c1ccccc1-c1c(F)cccc1F` [Example 391, N-{[(2R,3R)-1-[(1S,2S)-2-(2′,6′-difluoro[1,1′-biphenyl]-2-yl)-2-fluorocyclopropane-1-carbonyl]-3-(hydroxymethyl)azetidin-2-yl]methyl}methanesulfonamide], the “OX2R agonist activity (3 μM, %)” value was determined as 97%. Consider `CS(=O)(=O)NC1CCN(C(=O)C2CC2c2ccc(F)cc2-c2ccccc2F)C1` (racemic) [Example 208, a mixture of rac-N-{(3R)-1-[(1R,2R)-2-(2′,5-difluoro[1,1′-biphenyl]-2-yl)cyclopropane-1-carbonyl]pyrrolidin-3-yl}methanesulfonamide and rac-N-{(3S)-1-[(1R,2R)-2-(2′,5-difluoro[1,1′-biphenyl]-2-yl)cyclopropane-1-carbonyl]pyrrolidin-3-yl}methanesulfonamide], for which the “OX2R agonist activity (3 μM, %)” value is reported as 78%. `CN(C)S(=O)(=O)NC1CCCCN(C(=O)C2CC2c2ccccc2-c2c(F)cccc2F)C1` (racemic) [Example 162, a mixture of rac-N′-{(3R)-1-[(1R,2R)-2-(2′,6′-difluoro[1,1′-biphenyl]-2-yl)cyclopropane-1-carbonyl]azepan-3-yl}-N,N-dimethylsulfuric diamide and rac-N′-{(3S)-1-[(1R,2R)-2-(2′,6′-difluoro[1,1′-biphenyl]-2-yl)cyclopropane-1-carbonyl]azepan-3-yl}-N,N-dimethylsulfuric diamide]: the “OX2R agonist activity (3 μM, %)” value was 106%. `O=C([C@@H]1C[C@@]1(F)c1ccc(F)cc1-c1c(F)cccc1F)N1C[C@@H](F)[C@H]1CNS(=O)(=O)C(F)F` [Example 448, 1,1-difluoro-N-({(2R,3R)-3-fluoro-1-[(1S,2S)-2-fluoro-2-(2′,5,6′-trifluoro[1,1′-biphenyl]-2-yl)cyclopropane-1-carbonyl]azetidin-2-yl}methyl)methanesulfonamide]: the “OX2R agonist activity (3 μM, %)” value came out at 98%.

With `CO[C@@H]1CCN(C(=O)[C@@H]2C[C@H]2c2ccccc2-c2c(F)cccc2F)C[C@H]1NS(C)(=O)=O` [Example 350, N-{(3R,4R)-1-[(1R,2R)-2-(2′,6′-difluoro[1,1′-biphenyl]-2-yl)cyclopropane-1-carbonyl]-4-methoxypiperidin-3-yl}methanesulfonamide], the “OX2R agonist activity (3 μM, %)” value is 102%. Turning to `CS(=O)(=O)NC1CCCN(C(=O)C2CC2c2ccccc2-c2ccc(F)cc2F)C1` (racemic) [Example 68, a mixture of rac-N-{(3R)-1-[(1R,2R)-2-(2′,4′-difluoro[1,1′-biphenyl]-2-yl)cyclopropane-1-carbonyl]piperidin-3-yl}methanesulfonamide and rac-N-{(3S)-1-[(1R,2R)-2-(2′,4′-difluoro[1,1′-biphenyl]-2-yl)cyclopropane-1-carbonyl]piperidin-3-yl}methanesulfonamide], the “OX2R agonist activity (3 μM, %)” value came out at 85%. To `CCS(=O)(=O)NC[C@@H]1[C@H](F)CN1C(=O)C1(COC)CC1c1ccc(F)cc1-c1c(F)cccc1F` (stereo partly drawn) [Example 437, N-({(2R,3R)-3-fluoro-1-[(1R,2S)-1-(methoxymethyl)-2-(2′,5,6′-trifluoro[1,1′-biphenyl]-2-yl)cyclopropane-1-carbonyl]azetidin-2-yl}methyl)ethanesulfonamide, or N-({(2R,3R)-3-fluoro-1-[(1S,2R)-1-(methoxymethyl)-2-(2′,5,6′-trifluoro[1,1′-biphenyl]-2-yl)cyclopropane-1-carbonyl]azetidin-2-yl}methyl)ethanesulfonamide] belongs 99%. To `CS(=O)(=O)N[C@H]1CCCN(C(=O)C2CC2c2c(F)cccc2-c2c(F)cccc2F)C1` (stereo partly drawn) [Example 196, N-{(3S)-1-[(1R,2R)-2-(2′,3,6′-trifluoro[1,1′-biphenyl]-2-yl)cyclopropane-1-carbonyl]piperidin-3-yl}methanesulfonamide, or N-{(3S)-1-[(1S,2S)-2-(2′,3,6′-trifluoro[1,1′-biphenyl]-2-yl)cyclopropane-1-carbonyl]piperidin-3-yl}methanesulfonamide] belongs 101%; to `Cc1ccc(C2CC2C(=O)N2CCC(NS(C)(=O)=O)C2)c(-c2ccccc2Cl)c1` (racemic) [Example 145, a mixture of rac-N-{(3R)-1-[(1R,2R)-2-(2′-chloro-5-methyl[1,1′-biphenyl]-2-yl)cyclopropane-1-carbonyl]pyrrolidin-3-yl}methanesulfonamide and rac-N-{(3S)-1-[(1R,2R)-2-(2′-chloro-5-methyl[1,1-biphenyl]-2-yl)cyclopropane-1-carbonyl]pyrrolidin-3-yl}methanesulfonamide], 94%; to `CS(=O)(=O)NCC1CCCN(C(=O)C2CC2c2ccccc2-c2c(F)cccc2F)C1` (racemic) [Example 128, a mixture of rac-N-({(3R)-1-[(1R,2R)-2-(2′,6′-difluoro[1,1′-biphenyl]-2-yl)cyclopropane-1-carbonyl]piperidin-3-yl}methyl)methanesulfonamide and rac-N-({(3S)-1-[(1R,2R)-2-(2′,6′-difluoro[1,1′-biphenyl]-2-yl)cyclopropane-1-carbonyl]piperidin-3-yl}methyl)methanesulfonamide], 89%. Consider `CS(=O)(=O)NC[C@@H]1CCN1C(=O)[C@@H]1C[C@H]1c1ccccc1-c1c(F)cccc1F` [Example 355, N-({(2S)-1-[(1R,2R)-2-(2′,6′-difluoro[1,1′-biphenyl]-2-yl)cyclopropane-1-carbonyl]azetidin-2-yl}methyl)methanesufonamide], for which the “OX2R agonist activity (3 μM, %)” value is 94%.
